Measured values as given in article PMC3971757 (Journal of Natural Products, 2013).

How the values were obtained:
[1] = molecular target: NA of influenza virus A PR/8/34 (Influenza A virus, UniProt P03468); assay: biochemical; set-up: species or system influenza A virus H1N1 (A/PR/8/34); conditions: 50% NA inhibitory concentration against influenza virus A PR/8/34
[2] = molecular target: NA of influenza virus A HK/68 (Influenza A virus, UniProt Q91MA2); assay: biochemical; set-up: species or system influenza A virus H3N2 (A/HongKong/68)
NA of influenza virus A HK/68, sequence (Q91MA2 whole entry, looked up): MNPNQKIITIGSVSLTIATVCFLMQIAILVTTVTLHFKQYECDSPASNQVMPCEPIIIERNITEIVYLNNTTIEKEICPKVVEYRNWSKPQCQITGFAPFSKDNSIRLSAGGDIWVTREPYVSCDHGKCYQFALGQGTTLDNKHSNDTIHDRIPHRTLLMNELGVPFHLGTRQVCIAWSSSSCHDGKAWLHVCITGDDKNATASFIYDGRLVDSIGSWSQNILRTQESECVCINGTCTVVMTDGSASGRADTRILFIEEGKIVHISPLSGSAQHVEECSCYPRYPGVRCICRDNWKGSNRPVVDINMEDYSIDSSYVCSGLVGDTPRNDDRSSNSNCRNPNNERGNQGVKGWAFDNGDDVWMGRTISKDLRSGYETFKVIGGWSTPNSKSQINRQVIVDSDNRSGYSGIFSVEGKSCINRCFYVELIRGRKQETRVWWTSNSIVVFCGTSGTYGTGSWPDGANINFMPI

[3] = system: NA of influenza virus A/Jinan/15/90 (H3N2); conditions: FL-based NA inhibition assay; cited from earlier work
[4] = system: NA of influenza virus A/PR/8/34 (H1N1); conditions: FL-based NA inhibition assay; cited from earlier work
[5] = system: NA of influenza virus B/Jiangsu/10/2003; conditions: FL-based NA inhibition assay; cited from earlier work
NA of PR/8/34 = conditions: read-out: IC50 NA inhibition (PR/8/34); earlier study; cited from earlier work

NA of influenza virus A PR/8/34, sequence (P03468 whole entry, looked up): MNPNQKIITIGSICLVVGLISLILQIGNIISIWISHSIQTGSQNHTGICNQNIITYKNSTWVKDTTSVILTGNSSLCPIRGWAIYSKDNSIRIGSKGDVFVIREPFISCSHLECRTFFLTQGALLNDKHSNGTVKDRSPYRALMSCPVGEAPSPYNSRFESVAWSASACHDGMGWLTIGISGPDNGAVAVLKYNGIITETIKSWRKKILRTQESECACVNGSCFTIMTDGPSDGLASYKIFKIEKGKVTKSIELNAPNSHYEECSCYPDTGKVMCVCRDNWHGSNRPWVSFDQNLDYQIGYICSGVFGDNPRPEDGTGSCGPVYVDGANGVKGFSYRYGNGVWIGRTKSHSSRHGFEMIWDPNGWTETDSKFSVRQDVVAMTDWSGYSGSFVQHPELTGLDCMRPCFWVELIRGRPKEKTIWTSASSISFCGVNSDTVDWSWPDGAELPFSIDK

Row | Structure (SMILES) | IC50 [1] | IC50 [2] | further results
1 | CC(C)=CCc1c(O)ccc(C(=O)/C=C/c2cc(O)c3c(c2)C=CC(C)(C)O3)c1O [Compound 1, (E)-1-[2,4-dihydroxy-3-(3-methyl-2-butenyl)phenyl]-3-(8-hydroxy-2,2-dimethyl-2H-1-benzopyran-6-yl)-2-propen-1-one] | 0.25 µM | – | –
2 | CC1(C)C=Cc2c(ccc3c2OCC(O)C3)O1 (stereo not drawn) [Compound 2, 3,4-dihydro-8,8-dimethyl-2H,8H-benzo[1,2-b:3,4-b′]dipyran-3-ol] | 6.47 ± 2.59 µM | 12.4 ± 4.14 µM | –
3 | COc1ccc(-c2coc3cc(O)ccc3c2=O)cc1 [Compound 3, biochanin B] | 1.37 ± 0.22 µM | – | activity against the NA of influenza virus A/Jinan/15/90 (H3N2) [3]: weak activity; activity against the NA of influenza virus A/PR/8/34 (H1N1) [4]: weak activity; activity against the NA of influenza virus B/Jiangsu/10/2003 [5]: weak activity
4 | CC(C)=CCc1cc([C@@H]2CC(=O)c3ccc(O)c(CC=C(C)C)c3O2)ccc1O [Compound 4, glabrol] | 0.51 µM | 3.06 ± 1.21 µM | –
5 | CC1(C)C=Cc2c(ccc(-c3coc4cc(O)ccc4c3=O)c2O)O1 [Compound 5, glabrone] | 0.4 ± 0.17 µM | 5.34 ± 2.29 µM | –
6 | CC1(C)C=Cc2c(ccc([C@@H]3COc4c(ccc5c4C=CC(C)(C)O5)C3)c2O)O1 [Compound 6, hispaglabridin B] | 1.11 ± 0.53 µM | 2.85 ± 1.58 µM | –
7 | O=C1C[C@@H](c2ccc(O)cc2)Oc2cc(O)ccc21 [Compound 10, liquiritigenin] | 2.07 ± 0.37 µM | – | –
8 | O=C1C[C@@H](c2ccc(O[C@@H]3O[C@H](CO)[C@@H](O)[C@H](O)[C@H]3O)cc2)Oc2cc(O)ccc21 [Compound 11, liquiritin] | 83.1 ± 17.8 µM | – | activity against the NA of influenza virus A/Jinan/15/90 (H3N2) [3]: weak activity; activity against the NA of influenza virus A/PR/8/34 (H1N1) [4]: weak activity; activity against the NA of influenza virus B/Jiangsu/10/2003 [5]: weak activity
9 | O=C1C[C@@H](c2ccc(O)cc2)Oc2cc(O[C@@H]3O[C@H](CO)[C@@H](O)[C@H](O)[C@H]3O)cc(O)c21 [Compound 12, prunin] | 3 ± 0.46 µM | – | –
10 | C=CCc1ccc(O)c(-c2ccc(O)c(CC=C)c2)c1 [Honokiol, honokiol, reference compound] | 3.01 µM | – | –
11 | O=C(CCc1ccccc1)C[C@@H]1C[C@@H](c2ccccc2)c2c(cc(/C=C/c3ccccc3)oc2=O)O1 [Katsumadain A, katsumadain A] | – | – | IC50 (NA of PR/8/34): 1.05 µM
